US20130184222A1, “[…] ACTIVE COMPOSITIONS AND THEIR METHODS OF USE” (AGIOS PHARMACEUTICALS, INC, priority 2010, published 2013)
pIC50: −log10 of the molar value.

How the values were obtained:
[1] = test system: HT1080 cells; assay: Cellular assay: inhibition of 2-HG production in HT1080 cells (LC-MS, 48 hours); assay type: cell-based; conditions: Homo sapiens, HT-1080, 2-HG in media by LC-MS
Experimental: Cells (HT1080 or U87MG) were grown in T125 flasks in DMEM containing 10% FBS, 1× penicillin/streptomycin and 500 ug/mL G418 (present in U87MG cells only). They were harvested by trypsin and seeded into 96 well white bottom plates at a density of 5000 cell/well in 100 ul/well in DMEM with 10% FBS. No cells were placed in columns 1 and 12. Cells were incubated overnight at 37° C. in 5% CO2. The next day test compounds were made up at 2× the final concentration and 100 ul were added to each cell well. The final concentration of DMSO was 0.2% and the DMSO control wells were plated in row G. The plates were then placed in the incubator for 48 hours. At 48 hours, 100 ul of media was removed from each well and analyzed by LC-MS for 2-HG concentrations. The cell plate was placed back in the incubator for another 24 hours. At 72 hours post compound addition, 10 mL/plate of Promega Cell Titer Glo reagent was thawed and mixed. The cell plate was removed from the incubator and allowed to equilibrate to room temperature. Then 100 ul of Promega Cell Titer Glo reagent was added to each well of media. The cell plate was then placed on an orbital shaker for 10 minutes and then allowed to sit at room temperature for 20 minutes. The plate was then read for luminescence with an integration time of 500 ms.

[2] = molecular target: IDH1 R132H (Homo sapiens, UniProt O75874, R132H); assay: In vitro assay for IDH1 R132H inhibitors (NADPH/aKG, resazurin detection); assay type: biochemical; conditions: Table 4B; 0.2 μg/ml IDH1 R132H, 50 minutes at room temperature; read-out: IC50, IDH1 R132H Inhibition
Sequence of IDH1 R132H (O75874 whole entry R132H): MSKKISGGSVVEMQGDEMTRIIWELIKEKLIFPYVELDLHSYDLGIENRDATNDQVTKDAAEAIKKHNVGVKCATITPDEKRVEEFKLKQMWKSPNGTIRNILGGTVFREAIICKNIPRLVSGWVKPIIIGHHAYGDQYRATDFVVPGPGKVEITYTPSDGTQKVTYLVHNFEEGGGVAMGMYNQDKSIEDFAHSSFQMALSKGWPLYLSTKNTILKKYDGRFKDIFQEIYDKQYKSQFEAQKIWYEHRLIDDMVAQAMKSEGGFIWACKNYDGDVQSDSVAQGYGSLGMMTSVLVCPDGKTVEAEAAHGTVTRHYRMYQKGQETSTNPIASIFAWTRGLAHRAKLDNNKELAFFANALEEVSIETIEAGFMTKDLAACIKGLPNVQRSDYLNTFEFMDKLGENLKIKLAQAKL
Method in brief: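 Buffer: 150 mM NaCl, 10 mM MgCl2, 20 mM Tris pH 7.5, 0.03% BSA. Compound was added to substrate mix (8 uM NADPH, 2 mM aKG), then enzyme mix (0.2 μg/ml IDH1 R132H), and incubated 50 min at room temperature. Remaining NADPH was read by resazurin (30 μM in detection mix) to resorufin fluorescence after 5 min, Ex544/Em590.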

[3] = test system: U87MG cells; assay: Cellular assay: inhibition of 2-HG production in U87MG cells (LC-MS, 48 hours); assay type: cell-based; conditions: Homo sapiens, U-87 MG, 2-HG in media by LC-MS
Method in brief: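 HT1080 or U87MG cells (5000/well, DMEM + 10% FBS) seeded overnight, then exposed to compound (0.2% DMSO final) for 48 h; medium 2-HG measured by LC-MS. Viability read by CellTiter-Glo luminescence at 72 h.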

SMILES	pIC50 [1]	pIC50 [2]	pIC50 [3]
Cc1ccccc1C(C(=O)NC1CCCCC1)N(C(=O)CNCc1ccn(C)n1)c1cccc(F)c1 (stereo not drawn) [Compound 256]	6.00 to 6.60	6.00 to 7.00	5.30 to 6.00
Cc1ccccc1C(C(=O)NC1CCCCC1)N(C(=O)Cc1cn(C)c2ccccc12)c1cccc(F)c1 (stereo not drawn) [Compound 243]	6.00 to 6.60	6.00 to 7.00	6.00 to 6.60
Cc1ccccc1C(C(=O)NC1CCCCC1)N(C(=O)Cc1cccs1)c1ccn(C)n1 (stereo not drawn) [Compound 166]	6.00 to 6.60	6.00 to 7.00	5.30 to 6.00
Cc1ccccc1C(C(=O)NC1CCCCC1)N(C(=O)Cn1c(C)nc2ccccc21)c1ccn(C)n1 (stereo not drawn) [Compound 224]	6.00 to 6.60	6.00 to 7.00	6.00 to 6.60
CC(=O)Oc1ccc(CC(=O)N(c2cccc(F)c2)C(C(=O)NC2CCCCC2)c2ccccc2C)cc1 (stereo not drawn) [Compound 212]	≥ 6.60	≥ 7.00	≥ 6.60
Cc1ccccc1C(C(=O)NC1CC2CC2C1)N(C(=O)Cn1ccnc1C)c1cccc(F)c1 (stereo not drawn) [Compound 327]	5.30 to 6.00	6.00 to 7.00	≥ 6.60
Cc1ccccc1C(C(=O)NC1CCCCC1)N(C(=O)CN1CCN(C(=O)O[C@H]2CCOC2)CC1)c1cccc(F)c1 (stereo partly drawn) [Compound 248]	5.30 to 6.00	6.00 to 7.00	5.30 to 6.00
COC(=O)NCC(=O)N(c1cccc(F)c1)C(C(=O)NC1CCCCC1)c1ccccc1C (stereo not drawn) [Compound 334]	≥ 6.60	≥ 7.00	≥ 6.60
Cc1ccccc1C(C(=O)NC1CCCCC1)N(Cc1cccs1)C(=O)CNc1ccc(C#N)cc1 (stereo not drawn) [Compound 228]	6.00 to 6.60	≥ 7.00	6.00 to 6.60
Cc1ccccc1C(C(=O)NC1CCCCC1)N(C(=O)Cc1n[nH]c2ccccc12)c1cccc(F)c1 (stereo not drawn) [Compound 289]	≥ 6.60	≥ 7.00	≥ 6.60
Cc1ccccc1C(C(=O)NC1CCCCC1)N(Cc1nccs1)C(=O)Cn1nnc2ccccc21 (stereo not drawn) [Compound 205]	5.30 to 6.00	6.00 to 7.00	5.30 to 6.00
Cc1ccccc1C(C(=O)NC1CCCCC1)N(C(=O)Cc1ccc2[nH]ccc2c1)c1cccc(F)c1 (stereo not drawn) [Compound 297]	6.00 to 6.60	≥ 7.00	≥ 6.60
CN(C)C(=O)Oc1ccc(CC(=O)N(c2cccc(F)c2)C(C(=O)NC2CCCCC2)c2ccccc2F)cc1 (stereo not drawn) [Compound 313]	≥ 6.60	≥ 7.00	≥ 6.60
Cc1ccccc1C(C(=O)NC1CCCCC1)N(Cc1cccs1)C(=O)Oc1ccccc1 (stereo not drawn) [Compound 387]	5.30 to 6.00	5.00 to 6.00	< 5.30
Cc1ccccc1C(C(=O)NC1CCCCC1)N(C(=O)Cn1cc[nH]c1=O)c1cccc(F)c1 (stereo not drawn) [Compound 319]	5.30 to 6.00	6.00 to 7.00	5.30 to 6.00
[2H]C1([2H])C([2H])([2H])C([2H])([2H])C([2H])(NC(=O)C(c2ccccc2C)N(C(=O)COc2ccccn2)c2cccc(F)c2)C([2H])([2H])C1([2H])[2H] (stereo not drawn) [Compound 351]	≥ 6.60	≥ 7.00	≥ 6.60
Cc1ccccc1C(C(=O)NC1CCCCC1)N(C(=O)CNc1cc(F)ccn1)c1cccc(F)c1 (stereo not drawn) [Compound 287]	≥ 6.60	≥ 7.00	≥ 6.60
Cc1ccccc1C(C(=O)NC1CCCCC1)N(C(=O)Cc1ccc(O)cc1)c1cccc(F)c1 (stereo not drawn) [Compound 217, N-Cyclohexyl-2-{(3-fluoro-phenyl)-[2-(4-hydroxy-phenyl)-acetyl]-amino}-2-o-tolyl-acetamide]	≥ 6.60	≥ 7.00	≥ 6.60
Cc1ccccc1C(C(=O)NC1CCCCC1)N(C(=O)Cn1ccnc1C)c1cccc(Br)c1 (stereo not drawn) [Compound 268]	5.30 to 6.00	6.00 to 7.00	≥ 6.60
Cc1ccccc1C(C(=O)NC1CCCCC1)N(C(=O)C(=O)c1c[nH]c2ccncc12)c1cccc(F)c1 (stereo not drawn) [Compound 269]	5.30 to 6.00	6.00 to 7.00	5.30 to 6.00
Cc1ccccc1C(C(=O)NC1CCC(F)(F)CC1)N(C(=O)COc1ccccn1)c1cccc(F)c1 (stereo not drawn) [Compound 331]	≥ 6.60	≥ 7.00	≥ 6.60
Cc1ccccc1C(C(=O)NC1CCCCC1)N(C(=O)Cc1ccc(OC(=O)N2CCOCC2)cc1)c1cccc(F)c1 (stereo not drawn) [Compound 264]	6.00 to 6.60	6.00 to 7.00	6.00 to 6.60

SMILES	pIC50 [1]	pIC50 [2]	pIC50 [3]
Cc1ccccc1C(C(=O)NC1CCCCC1)N(C(=O)Cn1c(C)nc2ccccc21)c1cccc(F)c1 (stereo not drawn) [Compound 173]	≥ 6.60	≥ 7.00	≥ 6.60
Cc1ccccc1C(C(=O)NC1CCCCC1)N(C(=O)CNCCc1cccnc1)c1cccc(F)c1 (stereo not drawn) [Compound 193]	6.00 to 6.60	6.00 to 7.00	5.30 to 6.00
Cc1ccccc1C(C(=O)NC1CCC(F)(F)CC1)N(C(=O)Cn1ccnc1C)c1cccc(F)c1 (stereo not drawn) [Compound 330]	6.00 to 6.60	6.00 to 7.00	≥ 6.60
Cc1ccccc1C(C(=O)NC1CC2CC2C1)N(C(=O)COc1ccccn1)c1cccc(F)c1 (stereo not drawn) [Compound 354]	6.00 to 6.60	6.00 to 7.00	6.00 to 6.60
Cc1ccccc1[C@@H](C(=O)NC1CCCCC1)N(C(=O)[C@H]1CCCN1S(C)(=O)=O)c1cccc(F)c1 [Compound 363]	5.30 to 6.00	6.00 to 7.00	6.00 to 6.60
Cc1ccccc1[C@@H](C(=O)NC1CCCCC1)N(C(=O)[C@H]1CCCCN1C(=O)OC(C)C)c1cccc(F)c1 [Compound 338]	6.00 to 6.60	6.00 to 7.00	5.30 to 6.00
Cc1ccccc1C(C(=O)NC1CCCCC1)N(C(=O)CN1Cc2cccnc2C1)c1cccc(F)c1 (stereo not drawn) [Compound 209]	≥ 6.60	6.00 to 7.00	6.00 to 6.60
Cc1ccccc1C(C(=O)NC1CCCCC1)N(C(=O)COC1CCOCC1)c1cccc(F)c1 (stereo not drawn) [Compound 259]	6.00 to 6.60	6.00 to 7.00	6.00 to 6.60
Cc1ccccc1C(C(=O)NC1CCCCC1)N(C(=O)CNc1ccccc1C#N)c1cccc(F)c1 (stereo not drawn) [Compound 278]	≥ 6.60	6.00 to 7.00	≥ 6.60
Cc1ccccc1C(C(=O)NC1CCCCC1)N(C(=O)Cc1c[nH]c2cnccc12)c1cccc(F)c1 (stereo not drawn) [Compound 276]	≥ 6.60	≥ 7.00	≥ 6.60
Cc1ccccc1C(C(=O)NC1CCCCC1)N(C(=O)CNc1ncccc1F)c1cccc(F)c1 (stereo not drawn) [Compound 301]	≥ 6.60	≥ 7.00	≥ 6.60
Cc1ccccc1C(C(=O)NC1CCCCC1)N(C(=O)COCc1ccccn1)c1cccc(F)c1 (stereo not drawn) [Compound 281]	≥ 6.60	6.00 to 7.00	6.00 to 6.60
COC(=O)N1CCN(CC(=O)N(c2cccc(F)c2)C(C(=O)NC2CCCCC2)c2ccccc2C)CC1 (stereo not drawn) [Compound 185]	≥ 6.60	≥ 7.00	6.00 to 6.60
Cc1ccccc1C(C(=O)NC1CCCCC1)N(C(=O)COC1CCCC1)c1cccc(F)c1 (stereo not drawn) [Compound 230]	5.30 to 6.00	6.00 to 7.00	5.30 to 6.00
Cc1ccccc1[C@@H](C(=O)NC1CCCCC1)N(C(=O)[C@H]1CCCCN1S(C)(=O)=O)c1cccc(F)c1 [Compound 346]	6.00 to 6.60	6.00 to 7.00	6.00 to 6.60
Cc1ccccc1C(C(=O)NCC1CCCCC1)N(C(=O)Cc1cccs1)c1cccc(F)c1 (stereo not drawn) [Compound 211]	5.30 to 6.00	6.00 to 7.00	5.30 to 6.00
Cc1ccccc1C(C(=O)NC1CCCCC1)N(Cc1cccs1)C(=O)Cc1c[nH]c2ncccc12 (stereo not drawn) [Compound 213]	6.00 to 6.60	≥ 7.00	6.00 to 6.60
CCC(=O)N1CCCCC1C(=O)N(c1cccc(F)c1)C(C(=O)NC1CCCCC1)c1ccccc1C (stereo not drawn) [Compound 328]	5.30 to 6.00	6.00 to 7.00	5.30 to 6.00
Cc1ccccc1C(C(=O)NC1CCCCC1)N(C(=O)COc1ccc(F)cn1)c1cccc(F)c1 (stereo not drawn) [Compound 260]	≥ 6.60	≥ 7.00	6.00 to 6.60
CCOC(=O)N1CCN(CC(=O)N(c2cccc(F)c2)C(C(=O)NC2CCCCC2)c2ccccc2C)CC1 (stereo not drawn) [Compound 249]	6.00 to 6.60	6.00 to 7.00	6.00 to 6.60
Cc1ccccc1C(C(=O)NC1CCCCC1)N(C(=O)CNC1Cc2cccnc2C1)c1cccc(F)c1 (stereo not drawn) [Compound 318]	6.00 to 6.60	6.00 to 7.00	6.00 to 6.60
Cc1ccccc1C(C(=O)NC1CCCCC1)N(C(=O)CN[C@H]1CCOC1)c1cccc(F)c1 (stereo partly drawn) [Compound 191]	5.30 to 6.00	6.00 to 7.00	5.30 to 6.00
